Assay results: patent US20200131669A1, “CYCLIC PEPTIDE COMPOUND HAVING HIGH MEMBRANE PERMEABILITY, AND LIBRARY CONTAINING SAME” (Chugai Seiyaku Kabushiki Kaisha, priority 2017, published 2020)
Starred links: 1 amine or outer side, 2 acyl side, 3 side chain; linkers in the order of their positions; H or OH if unused. Positions of bridges follow the written chain, without caps; N, C: chain ends. Non-standard residues stand in square brackets, D forms with d. Residues, ends and D or L forms follow the SMILES beside them. *: point of attachment. X13 = O=C([C@@H]1C[C@H](N2CCC(F)(F)CC2)CN1[*:1])[*:2]; X1 = CC(CC(=O)[*:2])C(=O)[C@@H](N[*:1])[C@@H](C)O; NMePhe(3-Cl) = CN[C@@H](Cc1cccc(Cl)c1)C(=O)O; hPhe(3-Cl) = N[C@@H](CCc1cccc(Cl)c1)C(=O)O; NMeF = CN[C@@H](Cc1ccccc1)C(=O)O; NMeGABA = CN(CCCC(=O)[*:2])[*:1]; NMeI = CC[C@H](C)[C@H](NC)C(=O)O; NMeD = CN[C@@H](CC(=O)O)C(=O)O; NMeL = CN[C@@H](CC(C)C)C(=O)O; NMeV = CN[C@H](C(=O)O)C(C)C; Piperidide = C1CCN(*)CC1; dAbu = CC[C@@H](N)C(=O)O; dNMeA = CN[C@H](C)C(=O)O; NBuGly = CCCCNCC(=O)O; Ethyl(2-OH) = OCC*; X2 = Fc1cncc(C*)c1; Sar = CNCC(=O)O; tBu = CC(C)(C)*; CHF2 = FC(F)*

Columns and labels:
Caco-2 cells [1] = assay: Caco-2 membrane permeability, improved method as used in the following Examples (96-well, 20 to 24 h preincubation); format: in vitro ADME
Procedure, shortened: (§1)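 Papp (cm/sec) was derived from LC/MS of basal samples collected 180 min after apical dosing in FaSSIF/HBSS pH 6.0 with 1% DMSO, against a basal HBSS pH 7.4 receiver containing 4% BSA. Three-week Caco-2 cultures were first preincubated with compound in DMEM+FaSSIF at 37 °C for 20–24 h.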

[2] = as above; format: in vitro ADME; conditions: human, Caco-2, Caco-2 (cm/sec)
Procedure, shortened: as §1

Caco-2 cells [3] = conditions: Ozeki et al. 2015, cited from earlier work; for decrease in the concentration on the Apical side: 120 minutes of incubation

For `CC(C)C[C@H]1C(=O)N[C@@H]([C@@H](C)O)C(=O)C(C)CC(=O)N(C)[C@@H](C(C)C)C(=O)N[C@@H](Cc2ccccc2)C(=O)N(C)[C@@H](Cc2cccc(Cl)c2)C(=O)N(C)[C@@H](CC(C)C)C(=O)N(C)[C@H](C(=O)N2CCCCC2)CC(=O)N2CCC[C@H]2C(=O)N[C@@H](Cc2ccccc2)C(=O)N[C@@H](COC(C)(C)C)C(=O)N1C` (some centres unmarked) [pd162] (PFS(tBu)[NMeL][X1][NMeV]F[NMePhe(3-Cl)][NMeL][NMeD]-Piperidide; lactam N-10), the “Caco-2” value (Caco-2 cells [1]; Caco-2) was 1.2e-06 cm/s and the Papp A→B at 180 min [2] was 1.2 ×10⁻⁶ cm/s.

In the case of `COCCc1ccc(OCC(O)CNC(C)C)cc1` (centres unmarked) [metoprolol], the “decrease in the concentration on the Apical side” value (Caco-2 cells [3]) is given as “approximately 20%”.

For `CC(C)NCC(O)COc1cccc2ccccc12` (centres unmarked) [propranolol], the “decrease in the concentration on the Apical side” value (Caco-2 cells [3]) is given as “approximately 40%” and the “added drug distributed in the cells after completion of incubation” value (Caco-2 cells [3]) is given as “approximately 8%”.

For `CC(C)C[C@H]1C(=O)N[C@@H]([C@@H](C)O)C(=O)N(C)CC(=O)N(C)[C@@H](C(C)C)C(=O)N[C@@H](Cc2ccccc2)C(=O)N(C)[C@@H](Cc2cccc(Cl)c2)C(=O)N(C)[C@@H](CC(C)C)C(=O)N(C)[C@H](C(=O)N2CCCCC2)CC(=O)N(C)[C@H](C)C(=O)N[C@@H](Cc2ccccc2)C(=O)N[C@@H](COC(C)(C)C)C(=O)N1C` [pd167] ([dNMeA]FS(tBu)[NMeL]T[Sar][NMeV]F[NMePhe(3-Cl)][NMeL][NMeD]-Piperidide; lactam N-11), the “Caco-2” value (Caco-2 cells [1]; Caco-2) was 1.7e-06 cm/s and the Papp A→B at 180 min [2] was 1.7 ×10⁻⁶ cm/s.

Work on `CC[C@H]1NC(=O)C[C@@H](C(=O)N2CCCCC2)NC(=O)[C@H](CC(C)C)N(C)C(=O)[C@H](Cc2ccccc2)NC(=O)[C@@H]2C[C@H](N3CCC(F)(F)CC3)CN2C(=O)[C@H]([C@@H](C)O)NC(=O)[C@H](CC(C)C)N(C)C(=O)[C@H](CC(C)C)NC(=O)[C@H](CC(C)C)N(C)C(=O)[C@H](COC(C)(C)C)NC(=O)[C@H](CC(C)C)N(C)C1=O` [pd462] ([dAbu][NMeL]S(tBu)[NMeL]L[NMeL]T[X13]F[NMeL]D-Piperidide; lactam N-11) yielded a Caco-2 (Caco-2 cells [1]; human, Caco-2, 180 min) of 1.1e-06 cm/s.

With `CC[C@H](C)[C@H]1C(=O)N[C@@H]([C@@H](C)O)C(=O)N(C)CC(=O)N(C)[C@@H](CC(C)C)C(=O)N[C@H](C(=O)N2CCCCC2)CC(=O)N(C)[C@@H](C)C(=O)NC(COc2cccc(Cl)c2)C(=O)N(C)[C@@H](CC(C)C)C(=O)N(C)[C@@H](Cc2ccccc2)C(=O)N[C@@H](C)C(=O)N(C)[C@@H](Cc2ccccc2)C(=O)N1C` (some centres unmarked) [pd188] the “Caco-2” value (Caco-2 cells [1]; human, Caco-2, 180 min) was 1.3e-06 cm/s.

With `CC(C)C[C@H]1C(=O)N[C@@H](COC(C)(C)C)C(=O)N(C)[C@@H](Cc2ccccc2)C(=O)N(C)[C@@H](CC(C)C)C(=O)N[C@H](C(=O)N2CCCCC2)CC(=O)N[C@H](C(C)C)C(=O)N(C)[C@@H](C(C)C)C(=O)N[C@@H](Cc2ccc(OC(F)F)cc2)C(=O)N(C)[C@@H](CC(C)C)C(=O)N[C@@H]([C@@H](C)O)C(=O)N(C)CC(=O)N1C` [pd476] ([dV][NMeV]Y(CHF2)[NMeL]T[Sar][NMeL]S(tBu)[NMeF][NMeL]D-Piperidide; lactam N-11) the Caco-2 (Caco-2 cells [1]; human, Caco-2, 180 min) was 1.1e-06 cm/s.

`CC[C@H](C)[C@H]1C(=O)N[C@@H]([C@@H](C)O)C(=O)N(C)CC(=O)N(C)[C@@H](CC(C)C)C(=O)N[C@H](C(=O)N2CCCCC2)CC(=O)N(C)[C@@H](C(C)C)C(=O)N[C@@H](COCc2cncc(F)c2)C(=O)N(C)[C@@H](CC(C)C)C(=O)N(C)[C@@H](Cc2ccccc2)C(=O)N[C@@H](CC(C)C)C(=O)N(C)[C@@H](Cc2ccccc2)C(=O)N1C` [pd347] ([NMeV]S(X2)[NMeL][NMeF]L[NMeF][NMeI]T[Sar][NMeL]D-Piperidide; lactam N-11) showed a Caco-2 (Caco-2 cells [1]; human, Caco-2, 180 min) of 1.1e-06 cm/s.

In the case of `CC[C@H](C)[C@H]1C(=O)N[C@@H]([C@@H](C)O)C(=O)N(C)CC(=O)N(C)[C@@H](C)C(=O)N[C@H](C(=O)N2CCCCC2)CC(=O)N(C)[C@@H](C)C(=O)N[C@@H](C(C)C)C(=O)N(C)[C@@H](CC(C)C)C(=O)N(C)[C@@H](Cc2ccccc2)C(=O)NC(COc2cccc(Cl)c2)C(=O)N(C)[C@@H](Cc2ccccc2)C(=O)N1C` (some centres unmarked) [pd186], the “Caco-2” value (Caco-2 cells [1]; human, Caco-2, 180 min) is reported as 1.8e-06 cm/s.

For `CC(C)C[C@H]1C(=O)N[C@@H]([C@@H](C)O)C(=O)N(C)CC(=O)N(C)[C@@H](C(C)C)C(=O)N[C@@H](Cc2ccccc2)C(=O)N(C)[C@@H](Cc2cccc(Cl)c2)C(=O)N(C)[C@@H](CC(C)C)C(=O)N(C)[C@H](C(=O)N2CCCCC2)CC(=O)N2CCC[C@@H]2C(=O)N[C@@H](Cc2ccccc2)C(=O)N[C@@H](COC(C)(C)C)C(=O)N1C` [pd163] ([dP]FS(tBu)[NMeL]T[Sar][NMeV]F[NMePhe(3-Cl)][NMeL][NMeD]-Piperidide; lactam N-11), the “Caco-2” value (Caco-2 cells [1]; Caco-2) was 1.7e-06 cm/s and the Papp A→B at 180 min [2] was 1.7 ×10⁻⁶ cm/s.

In the case of `CCCCN1CC(=O)N(C)[C@@H](Cc2ccccc2)C(=O)N(C)[C@@H](CC(C)C)C(=O)N[C@@H](COC(C)(C)C)C(=O)N(C)[C@@H](CC(C)C)C(=O)N[C@H](C(=O)N2CCCCC2)CC(=O)N(C)CC(=O)N(C)[C@@H](Cc2ccccc2)C(=O)N[C@@H](C(C)C)C(=O)N(C)[C@@H](CC(C)C)C(=O)N[C@@H](COCCO)C1=O` [pd501] ([Sar][NMeF]V[NMeL]S(Ethyl(2-OH))[NBuGly][NMeF][NMeL]S(tBu)[NMeL]D-Piperidide; lactam N-11), the Caco-2 (Caco-2 cells [1]; human, Caco-2, 180 min) is reported as 1.1e-06 cm/s.

In the case of `CC(C)C[C@H]1C(=O)N[C@@H](C(C)C)C(=O)N(C)[C@@H](Cc2ccccc2)C(=O)N(C)[C@@H](Cc2ccccc2)C(=O)N[C@@H](COC(C)(C)C)C(=O)N(C)[C@@H](CC(C)C)C(=O)N[C@@H](COCCO)C(=O)N(C)[C@@H](CC(C)C)C(=O)N(C)[C@@H](CC(C)C)C(=O)N[C@H](C(=O)N2CCCCC2)CC(=O)N(C)CCCC(=O)N1C` [pd498] ([NMeGABA][NMeL]V[NMeF][NMeF]S(tBu)[NMeL]S(Ethyl(2-OH))[NMeL][NMeL]D-Piperidide; lactam N-11), the Caco-2 (Caco-2 cells [1]; human, Caco-2, 180 min) is reported as 1.1e-06 cm/s.

With `CC[C@H](C)[C@@H]1NC(=O)[C@H](Cc2ccccc2)N(C)C(=O)CN(C)C(=O)C[C@@H](C(=O)N2CCCCC2)NC(=O)[C@H](C(C)C)N(C)C(=O)[C@H](CCc2cccc(Cl)c2)NC(=O)[C@H](CC(C)C)N(C)C(=O)[C@H](CC(C)C)N(C)C(=O)CN(C)C(=O)[C@H]([C@@H](C)O)NC(=O)[C@H](CC(C)C)N(C)C1=O` [pd358] ([Sar][NMeF]I[NMeL]T[Sar][NMeL][NMeL][hPhe(3-Cl)][NMeV]D-Piperidide; lactam N-11) the Caco-2 (Caco-2 cells [1]; human, Caco-2, 180 min) was 1.1e-06 cm/s.
